Data from article PMC4457840, “Differential Inhibition of Signal Peptide Peptidase Family Members by Established γ-Secretase Inhibitors” (PLoS ONE, 2015).
“Also recorded” adds a separate entry of the source.

Legend:
SPPL2b = biological target: T1, SPPL2b (Homo sapiens, UniProt Q8TCT7); test: FBA/SPPL2b co-transfected HEK 293T cell cleavage assay (Aβ ELISA, Western blot, IP/MS); format: cell-based
T1 construct: expressed in transfected cells; host or cells: HEK 293T
T1 sequence (Q8TCT7 26-592): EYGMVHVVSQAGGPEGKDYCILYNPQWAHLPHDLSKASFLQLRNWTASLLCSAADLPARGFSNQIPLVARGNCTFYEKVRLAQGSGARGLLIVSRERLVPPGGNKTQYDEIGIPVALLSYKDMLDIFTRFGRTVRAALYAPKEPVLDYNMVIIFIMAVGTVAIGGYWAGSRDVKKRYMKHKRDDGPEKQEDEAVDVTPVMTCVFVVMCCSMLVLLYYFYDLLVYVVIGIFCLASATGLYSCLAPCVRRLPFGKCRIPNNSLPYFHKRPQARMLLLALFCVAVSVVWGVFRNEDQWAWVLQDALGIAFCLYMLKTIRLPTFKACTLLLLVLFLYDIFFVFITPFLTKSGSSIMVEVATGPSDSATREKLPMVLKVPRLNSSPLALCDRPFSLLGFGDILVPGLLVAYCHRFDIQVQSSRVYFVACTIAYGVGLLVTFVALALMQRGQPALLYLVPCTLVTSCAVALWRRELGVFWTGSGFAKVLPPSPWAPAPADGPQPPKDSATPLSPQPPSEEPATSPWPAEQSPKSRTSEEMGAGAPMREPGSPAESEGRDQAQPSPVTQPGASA
Excerpt: (§1) Expression constructs in pcDNA6 for COOH-terminal FLAG (DYKDDDDK) and strep (WSHPQFEK) tagged SPPL2a, SPPL2b, hSPP and pSPP were generated as previously described. Untagged versions of all enzymes were also made and ligated into the pAG3 vector. Substrates (Fig 1) were designed as follows: FLAG-BRI2_1-81- Aβ1-25/K16A (FBA). The K16A mutation was incorporated to prevent potential α-secretase cleavage that would preclude ELISA based detection of the released COOH-terminal fragment. The substrate DNA was cloned into the expression vector pcDNA6. Constructs were confirmed by DNA sequencing. The overexpression of substrates was performed by transiently transfecting human embryonic kidney (HEK 293T) cells with or without SPP/SPPL vectors. Cells were grown in DMEM media supplemented with Hyclone 10% fetal bovine serum (GE, Logan, Utah, USA) and 1% penicillin/streptomycin (Life Technologies, Grand Island, NY, USA). Briefly, 2.7 μg DNA was applied to a 75% confluent 6 well plate (Corning, Tewksbury, MA, USA) using the polycation polyethylenimine (PEI) transfection method. Inhibitor testing experiments were conducted in 48 well plates with appropriately adjusted amounts of DNA and PEI and incubated 12–16 hours, after which the growth medium was replaced with fresh medium. DMSO (Sigma, St. Louis, MO, USA) and GSIs were added at the appropriate concentration. The GSIs, L685,458 and Compound W were purchased from Tocris (Tocris, Bristol, UK). (Z-LL)2 ketone, Compound E, DAPT, GSI II were purchased from Calbiochem (Merck Millipore, Billerica, MA, USA). LY-411,575 was synthesized by A. Fauq at the Mayo Clinic Chemical Core. Twenty-four hours later, the medium was collected for assay by ELISA and MS. A20 cells (TIB-208) (ATCC, Manassas, VA, USA) were cultured in RPMI-1640 medium (ATCC) supplied with 10% fetal bovine serum, 1% penicillin/streptomycin and 0.05 mM 2-mercaptoethanol (Life Technologies). At the density of 5x10^5 cells/ml, A20 cells were spun down at 1000 g for 2 min and resuspended in fresh medium supplied with DMSO or GSIs and incubated for 16 hr.
(§2) Sandwich ELISAs used for Aβ detection were performed as previously described. Briefly, Aβ and Aβ adducts with substrate TMD in conditioned media was captured with Ab5 antibody (human Aβ1–16 specific) and detected with horseradish peroxidase mAb 4G8 (Covance, Princeton, NJ, USA). Synthetic Aβ1–40 was used as standard. All ELISAs were developed with TMB substrate (KPL, Gaithersburg, Maryland, USA). Bis-Tris precast gels (Biorad, Hercules, CA, USA) were used for all SDS-PAGE. Monoclonal anti-FLAG M2 antibody (Sigma) and Aβ1–16 antibody 6E10 (Covance) were used for Western blotting. Antisera against SPPL2a, SPPL2b, hSPP and pSPP were generated as previously described and were used at dilution of 1:1000 for Western blotting. Anti-CD74 In-1 antibody (BD Bioscience, San Jose, CA, USA) was used for A20 cell lysate Western blotting at dilution of 1:1000.
(§3) Immunoprecipitation and mass spectrometry of xAβ1–25 in conditioned media were performed as previously described. In this study, 10 ml conditioned media were used for each experiment. ICDs were immunoprecipitated with anti-FLAG M2 magnetic beads. Cells from 10 cm dished treated with DMSO or 20 μM LY-411,575 were used for each test.

pSPP = pSPP (Plasmodium falciparum, UniProt Q8IKQ9); test: FBA/pSPP co-transfected HEK 293T cell cleavage assay (Aβ ELISA, Western blot, IP/MS); format: cell-based, human; details: for inhibition of xAβ1-25/K16A secretion (in words): 25 μM, ELISA
Chain of pSPP (Q8IKQ9 entry or part of it): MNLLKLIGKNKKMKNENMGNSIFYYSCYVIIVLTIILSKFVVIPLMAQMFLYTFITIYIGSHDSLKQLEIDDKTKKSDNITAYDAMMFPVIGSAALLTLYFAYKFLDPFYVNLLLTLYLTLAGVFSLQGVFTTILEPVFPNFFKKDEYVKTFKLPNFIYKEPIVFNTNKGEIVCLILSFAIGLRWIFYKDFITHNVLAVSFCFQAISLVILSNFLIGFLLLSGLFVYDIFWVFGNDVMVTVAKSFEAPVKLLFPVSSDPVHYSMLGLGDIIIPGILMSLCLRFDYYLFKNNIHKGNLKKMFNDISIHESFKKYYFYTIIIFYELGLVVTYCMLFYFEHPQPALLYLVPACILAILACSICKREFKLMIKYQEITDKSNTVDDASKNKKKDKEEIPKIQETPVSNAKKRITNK
Excerpt: as §1, §2, §3

SPPL2a [1] = biological target: T2, SPPL2a (Homo sapiens, UniProt Q8TCT8); test: FBA/SPPL2a co-transfected HEK 293T cell cleavage assay (Aβ ELISA, Western blot); format: cell-based
T2 construct: expressed in transfected cells; host or cells: HEK 293T
T2 sequence (Q8TCT8 26-520): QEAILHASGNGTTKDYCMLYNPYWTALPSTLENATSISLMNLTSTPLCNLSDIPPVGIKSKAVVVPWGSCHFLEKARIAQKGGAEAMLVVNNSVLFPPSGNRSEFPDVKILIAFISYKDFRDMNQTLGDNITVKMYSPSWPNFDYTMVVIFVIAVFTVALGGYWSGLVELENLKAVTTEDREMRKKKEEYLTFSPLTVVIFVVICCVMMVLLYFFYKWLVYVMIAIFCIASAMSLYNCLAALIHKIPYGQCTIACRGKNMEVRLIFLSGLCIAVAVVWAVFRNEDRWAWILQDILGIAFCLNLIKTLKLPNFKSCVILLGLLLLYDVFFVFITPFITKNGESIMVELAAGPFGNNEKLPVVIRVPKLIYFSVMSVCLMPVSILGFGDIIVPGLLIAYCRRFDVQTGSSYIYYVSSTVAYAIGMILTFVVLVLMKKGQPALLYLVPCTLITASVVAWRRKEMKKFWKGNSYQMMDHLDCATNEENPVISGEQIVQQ
Excerpt: as §1, §2

hSPP = biological target: T3, hSPP (Homo sapiens, UniProt Q8TCT9); test: FBA/hSPP co-transfected HEK 293T cell cleavage assay (Aβ ELISA, Western blot, IP/MS); format: cell-based; details: for IC50: HEK cells, 24 h, xAβ1-25/K16A by Aβ ELISA, mean ± standard error, read-out: IC50 on FBA/SPPL co-transfected cells
T3 construct: expressed in transfected cells; host or cells: HEK 293T
T3 sequence (Q8TCT9 1-377): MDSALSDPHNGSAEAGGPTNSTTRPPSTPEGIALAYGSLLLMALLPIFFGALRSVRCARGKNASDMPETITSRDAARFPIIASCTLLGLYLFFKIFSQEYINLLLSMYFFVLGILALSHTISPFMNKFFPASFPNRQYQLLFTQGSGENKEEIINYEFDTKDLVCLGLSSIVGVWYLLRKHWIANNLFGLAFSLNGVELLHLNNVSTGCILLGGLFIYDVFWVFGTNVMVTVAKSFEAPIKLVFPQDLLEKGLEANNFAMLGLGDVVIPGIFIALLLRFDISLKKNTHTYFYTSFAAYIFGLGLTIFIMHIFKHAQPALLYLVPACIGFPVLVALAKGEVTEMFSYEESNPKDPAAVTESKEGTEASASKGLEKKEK
Excerpt: as §1, §2, §3

SPPL2a [2] = test system: T4, SPPL2a; test: Endogenous CD74 NTF P8 turnover in non-overexpressing A20 cells (Western blot, In-1 antibody); format: cell-based, mouse
T4 construct: endogenous SPPL2a cleavage of CD74 in a murine B-Cell line; host or cells: A20 mouse B lymphocyte cells
Protocol: as §1, with “Untagged” for “Expression constructs in pcDNA6 for COOH-terminal FLAG (DYKDDDDK) and strep (WSHPQFEK) tagged SPPL2a, SPPL2b, hSPP and pSPP were generated as previously described. Untagged”
as §2

SPP = test system: SPP; parameters: method as in PMID 15252014, PMID 19337374, PMID 12621027; details: cited from earlier work
[3] = HEK cells, 24 h, xAβ1-25/K16A by Aβ ELISA, mean ± standard error, read-out: IC50 on FBA/SPPL co-transfected cells
[4] = HEK-293T, 25 μM, ELISA, DMSO = 100%, read-out: inhibition of the SPP/SPPLs
[5] = number in parenthesis in Table 3

With `O=C(O)c1cc(Oc2ccc([N+](=O)[O-])cc2)cc(Oc2ccc([N+](=O)[O-])cc2)c1` [Comp W, Compound W] the “inhibition of xAβ1-25/K16A secretion (in words)” value (from here on “inhibition … (in words)”) (SPPL2b; 25 μM, ELISA) was “does not show inhibition”, the “inhibition … (in words)” value (pSPP; pSPP) was “does not show inhibition” and the “inhibition … (in words)” value (SPPL2a [1]; 25 μM, ELISA) was “does not show inhibition”. For the same compound, the “inhibition … (in words)” value (hSPP; 25 μM, ELISA) was “does not show inhibition”.

With `C[C@H](NC(=O)Cc1cc(F)cc(F)c1)C(=O)N[C@@H]1C(=O)N(C)c2ccccc2-c2ccccc21` [DBZ] the “inhibition of FBA cleavage (10 kD ICD) by Western blot” value (SPPL2b; Fig 3C upper panel) was “slightly reduce”, the “inhibition … (in words)” value (hSPP; 25 μM, ELISA) was “inhibited; also recorded: selectively inhibit hSPP cleavage” and the “inhibition of FBA cleavage by Western blot” value (hSPP; Fig 3C lower panel) was “efficiently inhibited”. For the same compound, the IC50 (hSPP) was 948 ± 93 nM, the “dose response of P8 fragment stabilization (in words)” value (SPPL2a [2]; different doses) was “stabilized the P8 fragment in a dose dependent manner; also recorded: much weaker inhibition” and the “concentration at which effect was first seen” value (SPPL2a [2]; dose response) was 1 µM.

With `CC(C)C[C@H](NC(=O)[C@H](Cc1ccccc1)C[C@@H](O)[C@H](Cc1ccccc1)NC(=O)OC(C)(C)C)C(=O)N[C@@H](Cc1ccccc1)C(N)=O` [L685,458] the “inhibition … (in words)” value (SPPL2b; 25 μM, ELISA) was “largely inhibited”, the IC50 (SPPL2b; [3]) was 876 ± 133 nM and the inhibition at 25 µM (SPPL2b; [4]) was over 90%. The “rank order of inhibition” value (SPPL2b; [5]) was 1, the IC50 (pSPP) was 161 ± 97 nM and the inhibition at 25 µM (pSPP; HEK-293T, read-out: inhibition of the SPP/SPPLs) was over 90%. For the same compound, the “inhibition … (in words)” value (pSPP; pSPP) was “largely inhibited”, the “rank order of inhibition” value (pSPP; pSPP, number in parenthesis in Table 3) was 1 and the “inhibition … (in words)” value (SPPL2a [1]; 25 μM, ELISA) was “largely inhibited”. For the same compound, the IC50 (SPPL2a [1]; [3]) was 570 ± 90 nM, the inhibition at 25 µM (SPPL2a [1]; [4]) was over 90% and the “rank order of inhibition” value (SPPL2a [1]; [5]) was 3. For the same compound, the “inhibition of SPP activity” value (SPP) was “inhibit the activity of SPP”, the “inhibition … (in words)” value (hSPP; 25 μM, ELISA) was “largely inhibited” and the IC50 (hSPP) was 319 ± 91 nM. The inhibition at 25 µM (hSPP; [4]) was over 90% and the “rank order of inhibition” value (hSPP; [5]) was 2.
